According to the NIST ThermoML archive (doi:10.1016/j.jct.2008.10.016):

Assay: xn = mol fraction of the nth substance listed
Conditions: Drop volume

CCCCCCl [1-chloropentane] + CCCCCC
surface tension liquid-gas [mN/m]
Conditions	283.15 K	288.15 K	293.15 K	298.15 K	303.15 K	308.15 K	313.15 K
x2 = 0.0482	25.44	25.02	24.53	24.02	23.59	23.11	22.64
x2 = 0.1185	24.7	24.3	23.83	23.35	22.95	22.45	22.02
x2 = 0.1991	24	23.59	23.09	22.64	22.24	21.71	21.3
x2 = 0.308	23.2	22.76	22.25	21.78	21.37	20.8	20.41
x2 = 0.3925	22.62	22.17	21.67	21.2	20.75	20.16	19.8
x2 = 0.5087	21.91	21.44	20.94	20.47	20.03	19.4	19.05
x2 = 0.5953	21.41	20.94	20.47	20.02	19.56	18.91	18.56
x2 = 0.7076	20.85	20.37	19.9	19.45	18.98	18.3	18
x2 = 0.7889	20.47	19.98	19.5	19.04	18.56	17.88	17.58
x2 = 0.9069	19.97	19.44	18.94	18.5	17.99	17.25	16.99
x2 = 0.9474	19.81	19.24	18.74	18.29	17.79	17.05	16.77
